Measured values taken from PMC2570486, “The Recently Identified P2Y-Like Receptor GPR17 Is a Sensor of Brain Damage and a New Target for Brain Repair” (PLoS ONE, 2008).

What was measured:
[1] = biological target: T1, GPR17 (Mus musculus, UniProt Q6NS65); test: Permanent MCAo focal cerebral ischemia, brain infarct size by MRI; assay type: in vivo
T1 construct: from tissue; host or cells: brain of living male CD1 mice after permanent MCAo
Procedure: To address this issue, 6 mice received an anti-sense oligonucleotide (616) specifically designed to knock down this receptor in vivo. Animals were injected intracerebroventricularly 20 min and 24 h after MCAo. […] Another group of 6 animals received in parallel a “scrambled” oligonucleotide randomly generated on the basis of the nucleotide sequence of 616. This group of animals was utilized as a control group in this set of experiments. […] The evolution of ischemic damage was followed longitudinally in living animals by Magnetic Resonance Imaging (MRI) at 2, 24 and 48 h after MCAo.
Images were taken from the same animals at 2, 24 and 48 h after MCAo. […] (B) Quantitative analysis of infarct size volume at 24 and 48 hours after MCAo in mice receiving Scr, 616 or Can (mean of 6 animals/group). Data are expressed as percentage variation of infarct volume at 24 and 48 h after MCAo compared to 2 h considered as 100% (see also MATERIALS AND METHODS).
Male CD1 mice (Charles River, Calco, Italy) weighing 20–25 g, after intraperitoneally anesthetized with ketamine (0.1 mg/kg) and xylazine (0.02 mg/kg), underwent permanent MCAo, as previously described [35]. […]

[2] = biological target: T2, mGPR17 (Mus musculus, UniProt Q6NS65); test: [35S]GTPγS binding in membranes of 1321N1 cells transfected with pcDNA3.1-Gpr17m; assay type: biochemical; details: for EC50: membranes of 1321N1 cells expressing mouse GPR17, mean±SEM of three experiments, read-out: EC50, stimulation of [35S]GTPγS binding
T2 construct: contains a 1020 base pairs open reading frame (ORF) that encodes for a putative 339 amino acid protein; expressed in transfected cells; host or cells: 1321N1 human astrocytoma cells (transient, calcium phosphate); membranes
T2 sequence (Q6NS65 whole entry): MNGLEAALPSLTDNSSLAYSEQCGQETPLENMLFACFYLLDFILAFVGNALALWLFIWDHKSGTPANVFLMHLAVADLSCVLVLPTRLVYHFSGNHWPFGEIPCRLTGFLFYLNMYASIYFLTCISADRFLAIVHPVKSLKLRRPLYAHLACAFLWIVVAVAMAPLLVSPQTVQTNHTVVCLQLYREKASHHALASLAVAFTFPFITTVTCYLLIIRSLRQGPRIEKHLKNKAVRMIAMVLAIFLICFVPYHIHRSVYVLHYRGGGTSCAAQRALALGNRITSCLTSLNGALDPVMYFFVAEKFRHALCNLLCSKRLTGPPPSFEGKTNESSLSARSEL
Procedure: The pharmacological profile of mGPR17 was then assessed. Since stimulation of GPCRs results in increased binding of GTP to G proteins (which can, in turn, be quantified by measuring [^35S]GTPγS binding to purified membranes; see [13]), GPR17 activation in the heterologous system was determined by testing the increase of [^35S]GTPγS binding by exogenously-added agonists in membranes from transfected cells, [14], [15]. […] The ability of some known purinergic and cysLT antagonists to counteract agonist-induced GTPγS binding stimulation in cells expressing mGPR17 was also assessed.
Figure 1 Effect of purinergic and leukotriene ligands on mGPR17 with [^35S]GTPγS binding. Membrane aliquots (10 µg), obtained from 1321N1 cells transfected with pcDNA3.1-Gpr17m (A,B), were incubated with the indicated concentrations of purinergic (A) or leukotriene (B) agonists. […] (D) Effect of P2Y or CysLT receptor antagonist on agonist-stimulated [^35S]GTPγS binding. […] All data are expressed as percentage of basal [^35S]GTPγS binding (set to 100%) and represent the mean±SEM of three different experiments each performed in duplicate.
Human astrocytoma cells 1321N1 cells were cultured as described. For [^35S]GTPγS, 10^6 1321N1 cells were seeded on 75 cm^2 flasks and transfected by the calcium phosphate precipitation method.
Control and transfected 1321N1 cells were homogenized in 5 mM TRIS-HCl, 2 mM EDTA, pH 7.4 and centrifuged at 48000 g for 15 min at 4°C. The resulting plasma membranes were suspended in binding buffer and used in [^35S]GTPγS binding assay as previously described.
For [^35S]GTPγS binding data analysis and graphic presentation, a non-linear multipurpose curve-fitting program Graph-Pad Prism was used and the EC50 values were derived. Data are reported as mean±SEM of three different experiments (performed in duplicate).

[3] = tested on: GPR17+ oligodendrocyte precursors in primary cortical cultures; test: Oligodendrocyte precursor maturation in primary mixed neuronal/glial cortical cultures (immunostaining, cell counts); assay type: cell-based, rat; details: 72 h
Text: Figure 4 Presence and activation of GPR17 in oligodendrocyte precursor cells of primary cortical cultures maintained in vitro. […] Micrographs (A–H) show their phenotype characterization. […] Colocalization of GPR17 with these markers is shown in yellow-orange cells. […] In blue, Hoechst 33258 stained nuclei. Single cell RT-PCR was used to confirm expression of GPR17 in oligodendroglial-like cells (I). For this analysis, cells were picked up from living cultures using cell morphology as a guide at the light microscope. Left micrograph: an example of a brightfield showing cells (arrows) with oligodendrocyte morphology. These cells can be distinguished from neurons based on their size (approximately 1/3 the size of neurons), phase-dark cell bodies and presence of fine ramifications. The oligodendrocyte nature of cells with this morphology was confirmed by co-immunostaining for O4 and GPR17 at a subsequent time after culture fixing (arrows in right micrograph). By following this method, one living cell or a small number of cells (up to 10) were sucked from living cultures (see MATERIALS AND METHODS) and processed for RT-PCR analysis. […] Rat cortex was utilized as a positive control (see last lane). Scale bars: 15 µm. […] (K) Quantification of the percentage of GPR17^+ cells that also co-express the indicated oligodendrocyte markers. Total number (n) of GPR17^+ cells counted from two different coverslips for each preparation: for NG2, n = 3502; for O4, n = 2685; for CNPase, n = 1738; for MBP, n = 3615. Data were obtained from five different primary culture preparations.
Primary mixed neuronal/glial cultures from cerebral cortex were obtained from E18 Sprague-Dawley rats according to standard procedures [34]. Pregnant animals were euthanized by cervical dislocation under CO2 anesthesia, and the fetuses removed and put into ice-cold Hanks balanced salt solution. […]

[4] = UDP-glucose 100 µM, LTD4 100 nM

T1 sequence (Q6NS65 whole entry): as above

CSCCNc1nc(SCCC(F)(F)F)nc2c1ncn2[C@@H]1O[C@H](COP(=O)(O)OP(=O)(O)C(Cl)(Cl)P(=O)(O)O)[C@@H](O)[C@H]1O [Cangrelor]
progression of ischemic damage (brain infarct volume) at 24 and 48 h vs 2 h ([1]; cangrelor 1.125 µg/animal i.c.v. 20 min after MCAo, oligonucleotides 10 µg/animal i.c.v. 20 min and 24 h after MCAo): totally abolished | ischemic infarct volume at 2 h after MCAo ([1]; i.c.v. treatment 20 min after MCAo, 6 animals/group, no significant differences between groups): 16.4±4.23 mm^3 | IC50 ([2]; membranes of 1321N1 cells expressing mGPR17, 10 min pre-incubation, 500 nM UDP, read-out: IC50, inhibition of GTPγS binding stimulated by UDP): 1.2 ± 0.3 nM | effect on UDP-glucose-induced increase of GPR17+ and MBP+ cells ([3]; 10 µM antagonist with 100 µM UDP-glucose): partially counteracted

CCCCC/C=C\C\C=C/C=C/C=C/[C@@H](SC[C@H](NC(=O)CC[C@H](N)C(=O)O)C(=O)NCC(=O)O)[C@@H](O)CCCC(=O)O [LTC4]
EC50 [2]: 0.74 ± 0.2 nM

O=c1ccn([C@@H]2O[C@H](COP(=O)(O)OP(=O)(O)O)[C@@H](O)[C@H]2O)c(=O)[nH]1 [UDP]
EC50 [2]: 55 ± 6.2 nM

CCCCC/C=C\C\C=C/C=C/C=C/[C@@H](SC[C@H](N)C(=O)O)[C@@H](O)CCCC(=O)O [LTE4]
EC50 [2]: 0.31 ± 0.09 nM

CCCCC/C=C\C\C=C/C=C/C=C/[C@@H](SC[C@H](N)C(=O)NCC(=O)O)[C@@H](O)CCCC(=O)O [LTD4]
EC50 [2]: 0.63 ± 0.1 nM | number of GPR17+ precursor cells [3, 4]: significantly increased | number of mature MBP+ oligodendroglial cells [3, 4]: significantly increased
